Our source for the EC50 values is US20250066328A1, “PARP7 INHIBITORS” (Gilead Sciences, Inc., priority 2023, published 2025).

As a reminder, the EC50 is the concentration giving half of the maximal effect.

In this experiment the test system is STAT1 (phosphorylated at Tyr701) in NCI-H1373 cells. Put plainly: Phospho-STAT1 (Tyr701) LANCE Ultra TR-FRET detection assay in NCI-H1373 cells. Format: cell-based. Conditions: Homo sapiens, NCI-H1373, 48 h, 48 hours incubation, induction of pSTAT1, normalized to 10 uM positive control and DMSO, 4-parameter fit, read-out: NH1373 pSTAT1 EC50. Summed up:
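NCI-H1373 cells (30,000/well) incubated 48 h at 37° C on compound, then lysed; phospho-STAT1 Tyr701 measured by sandwich TR-FRET (665/620 nm ratio). Data normalized to DMSO and a 10 uM reference inducer; EC50 from 4-parameter fit.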
(Time-resolved FRET reads energy transfer from a long-lived donor to a nearby acceptor.)
With `COc1cnc(-c2cc3ccn(C[C@H](F)C[C@H](C)Nc4cn[nH]c(=O)c4C(F)(F)F)c(=O)c3c(F)c2F)nc1` [Example 99], the EC50 amounted to 1.06 nM.

Turning to `C[C@@H](C[C@@H](F)Cn1ccc2cc(-c3ncccn3)c(F)cc2c1=O)Nc1cn[nH]c(=O)c1C(F)(F)F` [Example 109], the EC50 worked out at 5.63 nM.

Take `CC[C@@H](C[C@@H](F)Cn1ccc2cc(-c3ncc(C(F)(F)F)cn3)c(F)cc2c1=O)Nc1cn[nH]c(=O)c1C(F)(F)F` [Example 118, 7-fluoro-2-((2R,4S)-2-fluoro-4-((6-oxo-5-(trifluoromethyl)-1,6-dihydropyridazin-4-yl)amino)hexyl)-6-(5-(trifluoromethyl)pyrimidin-2-yl)isoquinolin-1(2H)-one]: the EC50 came to 2.18 nM.

For `CC(F)(F)c1cnc(-c2cc3ccn(CC(F)CC(COC(F)F)Nc4cn[nH]c(=O)c4C(F)(F)F)c(=O)c3cc2F)nc1` (stereo not shown) [Example 131], the EC50 is 5.34 nM.

For `C[C@@H](C[C@@H](F)Cn1ccc2cc(-c3ncc(C(C)(C)O)cn3)c(F)cc2c1=O)Nc1cn[nH]c(=O)c1C(F)(F)F` (single isomer, unassigned) [Example 8], the concentration for a half-maximal effect (EC50) turned out to be 3.55 nM.

On to `CC(C)(O)c1cnc(-c2cc3ccn(CCC[C@@H](COC(F)F)Oc4cn[nH]c(=O)c4C(F)(F)F)c(=O)c3cc2F)nc1` (single isomer, unassigned) [Example 34], for which the EC50 amounted to 10000 nM.

Take `[2H]C([2H])([2H])Oc1cnc(-c2cc3ccn(C[C@H](F)C[C@H](C)Nc4cn[nH]c(=O)c4C(F)(F)F)c(=O)c3cc2F)nc1` [Example 27]: the EC50 is 1.05 nM.
